{"source": "patent US6770632B1", "about": "“Folypolyglutamyl synthetase gene transfer to enhance antifolate” (priority 1999, dated 2004)", "key": {"[1]": {"settings": "mouse, in vivo, 9 mg/kg; cited from earlier work"}, "in vivo": {"assay": "in vivo", "settings": "nude, mouse, ip"}, "[2]": {"test_system": "cocultures of 9L/FPGS and 9L cells", "assay": "Bystander effect study, cocultures of 9L/FPGS and 9L cells", "type": "cell-based, rat", "procedure": "For bystander effect studies, cells were plated in triplicate with varying combinations of 9L/FPGS and 9L cells such that the total number of cells was 8×10^5 per 10-cm-diameter plate. The same protocol of 4 hour cell adherence followed by 4 hour drug exposure, washes, growth in drug free medium for 3 days, and counting on a ZM coulter apparatus was then followed. […] Four mL conditioned medium+2 mL fresh medium were added to 10-cm-diameter plates containing 9L/BAG cells plated overnight (1000 cells/dish, with a clonogenic efficiency of approximately 20%). Six days later, the cells were fixed with 4% paraformaldehyde in PBS. Fixed cells were stained for LacZ by incubating overnight in a solution containing 35 mM potassium ferricyanide, 35 mM potassium ferrocyanide, 2 mM magnesium chloride, and 0.2% 5-bromo-4-chloro-3-indolyl-β-D galactoside (Xgal; Fisher Scientific Co.;Pittsburgh, Pa.) at pH=7.3 (Price, J., et al., Proceedings of the National Academy of Sciences USA 84:156-160 (1987)). The next day, blue colonies greater than 1 mm in diameter were counted.\nHowever, a more quantitative approach is to generate a dose-response curve for nontransfected cells, transfected cells, and a coculture and to calculate the transmission efficiency (TE) for the coculture (Friedlos, F., et al., Journal of Medicinal Chemistry 40:1270-1275 (1997)). [formula]\nThe superscripts 0, N, and 100 designate the ED50 values for cultures containing 0, N, and 100% transfected cells."}, "subcutaneous 9L tumors": {"test_system": "subcutaneous 9L tumors", "assay": "Growth of subcutaneous 9L tumors in nude mice", "type": "in vivo", "settings": "after three weeks", "procedure": "(§1) In Vivo Experiments: 10^5 9L or 9L/FPGS cells or a mixture of 8×10^5 9L+2×10^5 9L/FPGS cells in 200 μL DMEM were injected subcutaneously into the flanks of six week old female nude mice (NCr/Sed, nu/nu, 20 gm; Massachusetts General Hospital breeding colony). After 14 days, when the tumors had reached an average volume of 60 mm^3, the mice were randomly divided into experimental groups with five mice per group. Intraperitoneal injections of varying MTX or EDX doses dissolved in 200 μL 0.9% NaCl were administered either daily or every third day. Tumor size was measured weekly using calipers. Tumor volume was calculated as length×width×height, as described previously (Takamiya, Y., et al., Journal of Neuroscience Research 33:493-503 (1992))."}, "9L cells [3]": {"test_system": "9L cells", "assay": "Cell culture survival study, 9L cells", "type": "cell-based, rat", "settings": "for EC50: Rattus norvegicus, 9L, read-out: ED50 (the source's name)", "procedure": "(§2) Cell Culture Survival Studies: Cells were plated in triplicate at 8×10^5 cells per 10-cm-diameter plate, and were allowed to adhere for 4 hours, after which the medium was replaced with medium containing MTX or EDX. […] Drug-free medium was then added, and three days later the cells were trypsinized and counted on a model ZM Coulter apparatus. Dose-response curves were generated using Sigma Plot 3.0, which employs curve-fitting parameters based on the Marquardt-Levenberg method (Marquardt, D. W., Siam, J., J. Soc. Indust. Appl. Math 11:431-441 (1963))."}, "U87 cells": {"test_system": "U87 cells", "assay": "Cell culture survival study, U87 cells", "type": "cell-based, human", "procedure": "Cell Culture Survival Studies: Cells were plated in triplicate at 8×10^5 cells per 10-cm-diameter plate, and were allowed to adhere for 4 hours, after which the medium was replaced with medium containing MTX or EDX. After 4 hours drug exposure, the plates were washed three times with 4 mL PBS. Drug-free medium was then added, and three days later the cells were trypsinized and counted on a model ZM Coulter apparatus. Dose-response curves were generated using Sigma Plot 3.0, which employs curve-fitting parameters based on the Marquardt-Levenberg method (Marquardt, D. W., Siam, J., J. Soc. Indust. Appl. Math 11:431-441 (1963))."}, "9L/FPGS cells [4]": {"test_system": "9L/FPGS cells", "settings": "rat, 24 h, 2 μM", "quoted_text": "(§3) Thin Layer Chromatography of MTX Metabolites: 10^6 9L or 9L/FPGS cells were plated in 6-cm diameter dishes and allowed to adhere for 4 hours, after which cells were incubated overnight with 2 μM 3′, 5′, 7-[^3H] methotrexate (Moravek Biochemicals; Brea, Calif.). Cells were then trypsinized, centrifuged, resuspended in 300 μL deionized water, and sonicated for 45 seconds at half-maximal power. Sonicated cells were centrifuged briefly to remove cellular debris, after which protein concentration was calculated using the Bradford protein assay. Proteins were precipitated with 1 mL methanol at −20° C. for 2 hr. Precipitated proteins were removed by centrifugation at 20,000 g for 30 min, and the supernatant was then concentrated to 30 μL under a stream of N2 at 37° C. on a Meyer N-Evap Analytical Evaporator (Organomation Associates Inc., Northborough, Mass.). A 1 μL aliquot was scintillation counted—cpm were converted into moles of drug taken up by determining the cpm of a known quantity of [^3H] MTX. […] Plates were eluted with a chloroforrn-methanol-acetic acid mixture (2:2:1) containing 20 mg/mL cetyl trimethylammonium bromide (Sigma). Following elution, the plates were placed under ordinary fluorescent light for 2 days, after which 20 nmol unlabelled standards were visualized under long-wave ultraviolet light. Plates were run in duplicate and the average RF values of the standards were: MTX=0.66; MTX-G1=0.59; MTX-G2=0.44, MTX-G3=0.33; MTX-G4=0.27; MTX-G5=0.25. Regions corresponding to where standards migrated were marked in the sample lane, scraped individually into scintillation vials, and counted. The amount of each radioactive metabolite in a sample lane was determined as a percentage of the total radioactivity recovered from that sample lane, after subtraction of the background counts obtained from lanes lacking radioactive sample."}, "9L cells [5]": {"test_system": "9L cells", "settings": "rat, 24 h, 2 μM", "quoted_text": "as §3"}, "[6]": {"assay": "Maximum tolerated (nonlethal) dose in nude mice"}, "9L/FPGS cells [7]": {"test_system": "9L/FPGS cells", "assay": "Cell culture survival study, 9L/FPGS cells", "type": "cell-based, rat", "settings": "for EC50: Rattus norvegicus, 9L/FPGS, read-out: ED50 (the source's name)", "procedure": "as §2"}, "[8]": {"settings": "in vivo, cited from earlier work"}, "hepatoma cells": {"test_system": "hepatoma cells", "settings": "cited from earlier work"}, "[9]": {"settings": "nude mice, five consecutive days, previous studies (Inaba 1989); cited from earlier work"}, "[10]": {"test_system": "subcutaneous 9L/FPGS tumors", "assay": "Growth of subcutaneous 9L/FPGS tumors in nude mice", "type": "in vivo", "settings": "after three weeks", "procedure": "as §1"}, "[11]": {"settings": "4 h, 4 hrs drug exposure, curves of FIG. 1 (MTX) / FIG. 3a (EDX)"}}, "note": "Where two headings read alike, the source gives them in different places."}
{"molecule": "CN(Cc1cnc2nc(N)nc(N)c2n1)c1ccc(C(=O)N[C@@H](CCC(=O)O)C(=O)O)cc1", "note": "[MTX, Amethopterin]", "values": [{"measurement": "peak plasma level", "setting": "[1]", "value": 0.03, "unit": "mM"}, {"measurement": "MTD", "setting": "in vivo", "value": 9, "unit": "mg/kg/day"}, {"measurement": "EC50", "setting": "[2]; Rattus norvegicus, coculture 20% 9L/FPGS + 80% 9L, 4 hrs drug exposure, FIG. 4a, read-out: ED50 (the source's name)", "value": 1400, "unit": "nM"}, {"measurement": "transmission efficiency (TE)", "setting": "[2]; cocultures containing 20% 9L/FPGS cells, 4 hour pulses", "value": 49.9, "unit": "%"}, {"measurement": "fold growth of tumor volume", "setting": "subcutaneous 9L tumors; 9 mg/kg daily i.p.", "value": 10, "unit": "fold"}, {"measurement": "fold growth of tumor volume", "setting": "subcutaneous 9L tumors; 9 mg/kg every third day i.p.", "value": 26, "unit": "fold"}, {"measurement": "survival", "setting": "9L cells [3]; 9L cells, 0.3 μM for 4 hours, 3 days drug-free medium", "value": "~90", "unit": "%"}, {"measurement": "EC50", "setting": "9L cells [3]; 4 h, 4 hrs drug exposure, bystander experiment FIG. 4a", "value": 2700, "unit": "nM"}, {"measurement": "EC50", "setting": "9L cells [3]; [11]", "value": 2900, "unit": "nM"}, {"measurement": "EC50", "setting": "9L cells [3]; 72 h, 72 hrs drug exposure", "value": 40, "unit": "nM"}, {"measurement": "ED50 of U87 higher than that of 9L", "setting": "U87 cells; 4 hour pulse", "value": "over 10 fold"}, {"measurement": "EC50", "setting": "U87 cells; Homo sapiens, U-87 MG, U87, 4 hrs drug exposure, 3 days drug-free, read-out: ED50 (the source's name)", "value": 30000, "unit": "nM"}, {"measurement": "POLYGLUTAMATE DISTRIBUTION (percentages of total sample lane radioactivity)", "setting": "9L/FPGS cells [4]", "value": 10, "unit": "%"}, {"measurement": "TOTAL MTX ACCUMULATED", "setting": "9L/FPGS cells [4]", "value": 12.7, "unit": "pmol/mg protein"}, {"measurement": "total radioactivity associated with the higher order polyglutamates MTX-G4 and G5", "setting": "9L/FPGS cells [4]", "value": 31, "unit": "%"}, {"measurement": "TOTAL MTX ACCUMULATED", "setting": "9L cells [5]", "value": 6.3, "unit": "pmol/mg protein"}, {"measurement": "total radioactivity associated with the higher order polyglutamates MTX-G4 and G5", "setting": "9L cells [5]", "value": 14, "unit": "%"}, {"measurement": "maximum nonlethal dose", "setting": "[6]", "value": 9, "unit": "mg/kg"}, {"measurement": "range of concentrations with statistically significant difference in survival between 9L and 9L/FPGS", "setting": "9L/FPGS cells [7]; 4 hour pulses", "value": 100, "unit": "fold"}, {"measurement": "difference in ED50 between 9L and 9L/FPGS", "setting": "9L/FPGS cells [7]; 4 hour pulses, FIG. 1 / FIG. 3A", "value": 29, "unit": "fold"}, {"measurement": "EC50", "setting": "9L/FPGS cells [7]; 4 h, 4 hrs drug exposure, bystander experiment FIG. 4a (MTX) / 4b (EDX)", "value": 93, "unit": "nM"}, {"measurement": "EC50", "setting": "9L/FPGS cells [7]; [11]", "value": 101, "unit": "nM"}, {"measurement": "EC50", "setting": "9L/FPGS cells [7]; 72 h, 72 hrs drug exposure", "value": 40, "unit": "nM"}, {"measurement": "survival", "setting": "9L/FPGS cells [7]; two G418-resistant clones (one designated 9L/FPGS), 0.3 μM for 4 hours, 3 days drug-free medium", "value": "approximately 40%"}, {"measurement": "peak plasma level", "setting": "[8]; 50 mg/kg", "value": 0.1, "unit": "mM"}, {"measurement": "dose at which toxic side effects are experienced", "setting": "[8]", "value": 50, "unit": "mg/kg"}, {"measurement": "total intracellular polyglutamate pool leaving the cell as monoglutamylated MTX", "setting": "hepatoma cells", "value": 43, "unit": "%"}, {"measurement": "maximum tolerated (nonlethal) dose (MTD)", "setting": "[9]", "value": 15, "unit": "mg/kg/day"}, {"measurement": "fold growth of tumor volume", "setting": "[10]; 9 mg/kg daily i.p.", "value": 4, "unit": "fold"}, {"measurement": "fold growth of tumor volume", "setting": "[10]; 9 mg/kg every third day i.p.", "value": 9, "unit": "fold"}]}
